Experimental data as given in PMC8863071, “Functional Analysis of H^+-Pumping Membrane-Bound Pyrophosphatase, ADP-Glucose Synthase, and Pyruvate Phosphate Dikinase as Pyrophosphate Sources in Clostridium thermocellum” (Applied and Environmental Microbiology, 2022).

Target: T1, ADP-glucose synthase (Ags; ags1 ags2) (Acetivibrio thermocellus, UniProt A3DK82)
T1 construct: gene glgC; both subunits co-expressed untagged from pTrc99a (pTK30) in E. coli BL21; cell extract
T1 sequence (A3DK82 1-426): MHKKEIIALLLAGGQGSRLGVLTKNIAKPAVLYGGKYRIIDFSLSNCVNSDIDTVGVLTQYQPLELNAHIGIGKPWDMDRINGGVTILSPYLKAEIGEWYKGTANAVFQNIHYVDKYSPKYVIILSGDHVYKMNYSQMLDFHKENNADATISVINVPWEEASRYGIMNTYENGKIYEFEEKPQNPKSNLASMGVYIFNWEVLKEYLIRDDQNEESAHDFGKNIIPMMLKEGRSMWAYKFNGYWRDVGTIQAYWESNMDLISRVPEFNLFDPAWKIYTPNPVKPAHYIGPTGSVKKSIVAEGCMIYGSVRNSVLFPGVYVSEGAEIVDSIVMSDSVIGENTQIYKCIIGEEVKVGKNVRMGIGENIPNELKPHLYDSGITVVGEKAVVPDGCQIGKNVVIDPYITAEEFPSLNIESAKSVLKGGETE
T1 sequence (A3DK83 1-373 partner): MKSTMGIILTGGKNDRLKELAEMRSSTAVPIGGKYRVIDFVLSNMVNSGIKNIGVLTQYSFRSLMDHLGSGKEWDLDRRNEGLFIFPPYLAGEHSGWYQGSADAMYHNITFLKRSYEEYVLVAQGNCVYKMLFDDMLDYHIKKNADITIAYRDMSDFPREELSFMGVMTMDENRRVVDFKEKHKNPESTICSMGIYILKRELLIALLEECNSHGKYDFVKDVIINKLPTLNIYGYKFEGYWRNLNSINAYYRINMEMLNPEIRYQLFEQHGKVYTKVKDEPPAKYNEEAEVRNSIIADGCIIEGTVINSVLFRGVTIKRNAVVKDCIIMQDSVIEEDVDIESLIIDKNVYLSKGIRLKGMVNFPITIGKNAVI
Test: coupled NADP+ assay, pyrophosphorolysis direction
Assay type: biochemical
Conditions: 1 mM ADP-glucose, 1 mM PPi, 4 mM MgCl2, 2 mM fructose-1,6-bisphosphate, pH 7.5, 55°C

## Nc1ncnc2c1ncn2[C@@H]1O[C@H](COP(=O)(O)OP(=O)(O)O[C@H]2O[C@H](CO)[C@@H](O)[C@H](O)[C@H]2O)[C@@H](O)[C@H]1O [ADP-glucose]
  coupled NADP+ assay, pyrophosphorolysis direction: the activity was found to be ADP-glucose dependent
